Read-outs that look alike come from different tables or passages of the source.
What was measured:
[1] = test system: patients ≥60 years with AML
[2] = test system: high-risk MDS patients with -7/del(7q); experiment: AZA-001 subgroup analysis: patients with -7/del(7q); assay type: in vivo, human
[3] = test system: patients older than 55 years of age with AML; conditions: patients older than 55 years with AML, prior retrospective analysis; cited from earlier work
MDS patients [4] = test system: MDS patients
MDS patients [5] = conditions: pivotal CALGB study, approved Aza dose regimen subcutaneously; cited from earlier work
[6] = test system: patients with hematologic disorders, predominantly low-risk MDS; experiment: AVIDA longitudinal registry of patients receiving azacitidine (transfusion independence); assay type: in vivo, human
From the text: The study assessed usage patterns and transfusion requirements in patients enrolled in AVIDA, a longitudinal registry of patients with hematologic disorders receiving azacitidine, to further the understanding of current azacitidine treatment patterns in the community, identify common care procedures and concomitant treatments, and document transfusion requirements. Baseline demographics and disease characteristics were obtained at enrollment.

## Nc1ncn([C@@H]2O[C@H](CO)[C@@H](O)[C@H]2O)c(=O)n1 [azacitidine, 4-amino-1-β-D-ribofuranosyl-1,3,5-triazin-2(1H)-one]
[1]; 5/8
  fatigue: 63%
  mild injection site skin reaction: 63%
[1]; all patients
  mean overall survival time from diagnosis: 180 days
[1]; azacitidine 100 mg/m2 SC 5 days every 28 days, 6/8 patients
  overall response rate: 75%
[1]; in vivo
  mean number of days hospitalized during therapy: 18 days
  treatment related deaths: No treatment related deaths were observed
[1]; n=2 of 8
  complete response (CR): 25%
[1]; n=4 of 8
  partial response (PR): 50%
[1]; responders
  mean overall survival time: 200 days
[1]; two of the six responders
  responders who became independent of RBC transfusion: 33%
[2]; -7/del(7q) alone
  IWG 2000 response rate (CR+PR): 64%
[2]; -7/del(7q) as part of complex karyotype
  IWG 2000 response rate (CR+PR): 21%
[2]; -7/del(7q) patients
  CR: 8/30, 27%
  CR + PR: 13/30, 43%
  HI-E: 13/26, 50%
  HI-P: 10/20, 50%
[2]; RBC-dependent -7/del(7q) patients at BL
  RBC TI (transfusion independence): 12/21, 57%
[2]; patients with -7/del(7q)
  OS advantage at 2 years vs CCR: 4 fold
  hazard ratio for overall survival, azacitidine vs CCR: 0.33
  improvement in OS over CCR: 3 fold
  median Kaplan Meier difference in OS, AZA vs CCR: 8.4 months
  patients alive at 2 years: 33%
  reduced risk of death vs CCR: 67%
  tolerability: generally well tolerated
[2]; patients with -7/del(7q), azacitidine n=30
  median Kaplan-Meier overall survival: 13.1 months
[3]
  overall response rate: 60%
MDS patients [4]; AZA 5 (75 mg/m2/d x5d)
  FAB low-risk patients RBC transfusion independent at baseline who remained independent during the study: 64%
  RBC transfusion-dependent patients who achieved and retained independence at the end of cycle 6: 63%
  evaluable patients RBC transfusion independent at baseline who remained independent during the study: 68%
  mean duration of RBC transfusion independence: 109 days
  onset of HI within the first 3 cycles: 96%
  patients with at least 1 treatment-emergent AE that led to study discontinuation: 14%
  patients with bilineage HI: 10%
  patients with serious AEs: 30%
MDS patients [4]; AZA 5 (75 mg/m2/d x5d), N=49
  Any HI (major and minor): 27 (55) [40, 69] %
  Erythroid Major HI (IWG 2000), evaluable patients: 18 (37) [23, 52] %
  Erythroid Minor HI: 1 (2) [0.1, 11] %
  Neutrophil Major HI: 4 (8) [40, 100] %
  Neutrophil Minor HI: 2 (4) [0.5, 14] %
  Platelet Major HI: 9 (18) [9, 32] %
  Platelet Minor HI: 2 (4) [0.5, 14] %
MDS patients [4]; AZA 5 (75 mg/m2/d x5d), N=50
  Grade 3/4 AE: Anemia: 5 (10) %
  Grade 3/4 AE: Candida Sepsis: 1 (2) %
  Grade 3/4 AE: Cellulitis: 1 (2) %
  Grade 3/4 AE: Epistaxis: 0%
  Grade 3/4 AE: Febrile neutropenia: 1 (2) %
  Grade 3/4 AE: GI hemorrhage: 0%
  Grade 3/4 AE: Hematologic Disorders: 17 (34) %
  Grade 3/4 AE: Hemorrhagic Events: 1 (2) %
  Grade 3/4 AE: Hemorrhagic anemia: 1 n (%)
  Grade 3/4 AE: Infections: 5 (10) %
  Grade 3/4 AE: Leukopenia: 4 (8) %
  Grade 3/4 AE: Neutropenia: 11 (22) %
  Grade 3/4 AE: Pneumonia: 1 (2) %
  Grade 3/4 AE: Rectal hemorrhage: 0%
  Grade 3/4 AE: Thrombocytopenia: 6 (12) %
  Grade 3/4 AE: Urinary tract infection: 0%
  Grade 3/4 AE: ≥1 Adverse Event: 29 (58) %
MDS patients [4]; AZA 5 (75 mg/m2/d x5d), n=28
  onset of IWG-defined HI in Cycle 1: 15 (54) %
  onset of IWG-defined HI in Cycle 2: 10 (36) %
  onset of IWG-defined HI in Cycle 3: 2 (7) %
  onset of IWG-defined HI in Cycle 4: 1 (4) %
  onset of IWG-defined HI in Cycle 5: 0%
  onset of IWG-defined HI in Cycle 6: 0%
MDS patients [4]; AZA 5-2-2 (75 mg/m2/d)
  FAB low-risk patients RBC transfusion independent at baseline who remained independent during the study: 75%
  RBC transfusion-dependent patients who achieved and retained independence at the end of cycle 6: 100%
  evaluable patients RBC transfusion independent at baseline who remained independent during the study: 67%
  mean duration of RBC transfusion independence: 135 days
  onset of HI within the first 3 cycles: 87%
  patients with at least 1 treatment-emergent AE that led to study discontinuation: 18%
  patients with bilineage HI: 11%
  patients with serious AEs: 54%
MDS patients [4]; AZA 5-2-2 (75 mg/m2/d), N=46
  Any HI (major and minor): 20 (44) [29, 59] %
  Erythroid Major HI (IWG 2000), evaluable patients: 15 (33) [20, 48] %
  Erythroid Minor HI: 1 (2) [0.1, 12] %
  Neutrophil Major HI: 3 (7) [29, 100] %
  Neutrophil Minor HI: 0 [0, 8] %
  Platelet Major HI: 10 (22) [11, 36] %
  Platelet Minor HI: 0 [0, 8] %
MDS patients [4]; AZA 5-2-2 (75 mg/m2/d), N=50
  Grade 3/4 AE: Anemia: 12 (24) %
  Grade 3/4 AE: Candida Sepsis: 0%
  Grade 3/4 AE: Cellulitis: 2 (4) %
  Grade 3/4 AE: Epistaxis: 1 (2) %
  Grade 3/4 AE: Febrile neutropenia: 4 (8) %
  Grade 3/4 AE: GI hemorrhage: 1 (2) %
  Grade 3/4 AE: Hematologic Disorders: 33 (66) %
  Grade 3/4 AE: Hemorrhagic Events: 4 (8) %
  Grade 3/4 AE: Hemorrhagic anemia: 0 n (%)
  Grade 3/4 AE: Infections: 11 (22) %
  Grade 3/4 AE: Leukopenia: 7 (14) %
  Grade 3/4 AE: Neutropenia: 21 (42) %
  Grade 3/4 AE: Pneumonia: 0%
  Grade 3/4 AE: Rectal hemorrhage: 0%
  Grade 3/4 AE: Thrombocytopenia: 13 (26) %
  Grade 3/4 AE: Urinary tract infection: 0%
  Grade 3/4 AE: ≥1 Adverse Event: 42 (84) %
MDS patients [4]; AZA 5-2-2 (75 mg/m2/d), n=22
  onset of IWG-defined HI in Cycle 1: 9 (41) %
  onset of IWG-defined HI in Cycle 2: 9 (41) %
  onset of IWG-defined HI in Cycle 3: 1 (5) %
  onset of IWG-defined HI in Cycle 4: 0%
  onset of IWG-defined HI in Cycle 5: 2 (9) %
  onset of IWG-defined HI in Cycle 6: 1 (5) %
MDS patients [4]; AZA 5-2-5 (50 mg/m2/d)
  FAB low-risk patients RBC transfusion independent at baseline who remained independent during the study: 80%
  RBC transfusion-dependent patients who achieved and retained independence at the end of cycle 6: 92%
  evaluable patients RBC transfusion independent at baseline who remained independent during the study: 79%
  mean duration of RBC transfusion independence: 138 days
  onset of HI within the first 3 cycles: 88%
  patients with at least 1 treatment-emergent AE that led to study discontinuation: 20%
  patients with bilineage HI: 7%
  patients with serious AEs: 40%
MDS patients [4]; AZA 5-2-5 (50 mg/m2/d), N=44
  Any HI (major and minor): 23 (52) [37, 68] %
  Erythroid Major HI (IWG 2000), evaluable patients: 17 (39) [24, 55] %
  Erythroid Minor HI: 1 (2) [0.1, 12] %
  Neutrophil Major HI: 4 (9) [40, 100] %
  Neutrophil Minor HI: 0 [0, 8] %
  Platelet Major HI: 8 (18) [8, 33] %
  Platelet Minor HI: 0 [0, 8] %
MDS patients [4]; AZA 5-2-5 (50 mg/m2/d), N=48
  Grade 3/4 AE: Anemia: 7 (15) %
  Grade 3/4 AE: Candida Sepsis: 0%
  Grade 3/4 AE: Cellulitis: 1 (2) %
  Grade 3/4 AE: Epistaxis: 0%
  Grade 3/4 AE: Febrile neutropenia: 4 (8) %
  Grade 3/4 AE: GI hemorrhage: 1 (2) %
  Grade 3/4 AE: Hematologic Disorders: 24 (50) %
  Grade 3/4 AE: Hemorrhagic Events: 3 (6) %
  Grade 3/4 AE: Hemorrhagic anemia: 0 n (%)
  Grade 3/4 AE: Infections: 14 (29) %
  Grade 3/4 AE: Leukopenia: 4 (8) %
  Grade 3/4 AE: Neutropenia: 15 (31) %
  Grade 3/4 AE: Pneumonia: 4 (8) %
  Grade 3/4 AE: Rectal hemorrhage: 1 (2) %
  Grade 3/4 AE: Thrombocytopenia: 7 (15) %
  Grade 3/4 AE: Urinary tract infection: 3 (6) %
  Grade 3/4 AE: ≥1 Adverse Event: 37 (77) %
MDS patients [4]; AZA 5-2-5 (50 mg/m2/d), n=24
  onset of IWG-defined HI in Cycle 1: 6 (25) %
  onset of IWG-defined HI in Cycle 2: 8 (33) %
  onset of IWG-defined HI in Cycle 3: 7 (29) %
  onset of IWG-defined HI in Cycle 4: 2 (8) %
  onset of IWG-defined HI in Cycle 6: 0%
MDS patients [4]; all 3 regimens
  hematologic AE: anemia: 29%
  hematologic AE: leukopenia: 18%
  hematologic AE: neutropenia: 38%
  hematologic AE: thrombocytopenia: 24%
  nonhematologic AE: constipation: 51%
  nonhematologic AE: fatigue: 93%
  nonhematologic AE: injection site erythema: 55%
  nonhematologic AE: injection site pain: 54%
  nonhematologic AE: nausea: 55%
MDS patients [4]; all 3 regimens, N=148
  Grade 3/4 AE: Anemia: 24 (16) %
  Grade 3/4 AE: Candida Sepsis: 1 (1) %
  Grade 3/4 AE: Cellulitis: 4 (3) %
  Grade 3/4 AE: Epistaxis: 1 (1) %
  Grade 3/4 AE: Febrile neutropenia: 9 (6) %
  Grade 3/4 AE: GI hemorrhage: 2 (1) %
  Grade 3/4 AE: Hematologic Disorders: 74 (50) %
  Grade 3/4 AE: Hemorrhagic Events: 8 (5) %
  Grade 3/4 AE: Infections: 30 (20) %
  Grade 3/4 AE: Leukopenia: 15 (10) %
  Grade 3/4 AE: Neutropenia: 47 (32) %
  Grade 3/4 AE: Pneumonia: 5 (3) %
  Grade 3/4 AE: Rectal hemorrhage: 1 (1) %
  Grade 3/4 AE: Thrombocytopenia: 26 (18) %
  Grade 3/4 AE: Urinary tract infection: 3 (2) %
  Grade 3/4 AE: ≥1 Adverse Event: 108 (73) %
MDS patients [4]; all 3 regimens, n=12
  serious AEs involving GI disorders: 8%
MDS patients [4]; all 3 regimens, n=19
  serious AEs involving blood or lymphatic system disorders: 13%
MDS patients [4]; all 3 regimens, n=31
  serious AEs involving infections: 21%
MDS patients [4]; each alternative dosing regimen group
  patients platelet transfusion independent at baseline who remained independent: ≥ 92%
MDS patients [4]; each of the 3 alternative treatment groups (2 patients each)
  patients with trilineage HI: 4%
MDS patients [4]; five patients (AZA 5-2-2 n=2, AZA 5 n=3)
  platelet transfusion independence in baseline-dependent patients: all of whom achieved transfusion independence
MDS patients [4]; three alternative dosing regimens
  tolerability: generally well tolerated
MDS patients [5]
  baseline RBC transfusion dependent patients who achieved transfusion independence: 45%
[6]; 16/43, at least 2 cycles of azacitidine
  patients with a history of transfusions who achieved transfusion-independence: 37%
[6]; 22/27, at least 2 cycles of azacitidine
  patients without a history of transfusion who achieved transfusion independence: 81%
[6]; patients with a history of transfusions
  median cycles to transfusion independence: 6 cycles
[6]; patients without a history of transfusion
  median cycles to transfusion independence: 4 cycles
